Assay results from patent US4829069A, “4-Thioquinazoline derivatives as antiulcer agents” (Nisshin Flour Milling Co., Ltd., priority 1987, dated 1989).

Legend:
[1] = test system: indomethacin induced ulcer; experiment: Antiulcer activity: suppression of indomethacin induced ulcer; assay type: in vivo, mouse (ddy series male mice); details: 100 mg/kg to the stomach 30 minutes before 20 mg/kg indomethacin p.o.; mean ulcer index vs control group, 4 hours after indomethacin
Protocol: The antiulcer activity of the compounds of this invention was determined by the following method. Four-week-old ddy series male mice were used as the test animals after they were fasted for 24 hours. Each test compound suspended in a 1% gum arabic solution was administered to the stomach of each mouse at a dose of 100 mg/kg, and then, after 30 minutes, 20 mg/kg of indomethacin was administered orally. Four hours after the administration of indomethacin, the stomach of mouse was extirpated and the length of ulcers was measured. Then, the ulcer index was determined by the total sum of the scores as calculated in Table 1. The mean ulcer index of each group was calculated and the suppression rate against the control group in terms of difference in the mean ulcer index was determined.

[2] = Toxicity, LD50 (P.O.); details: in vivo, po
[3] = Reversion test
[4] = background; cited from earlier work

c1ccc(CSc2ncnc3ccccc23)nc1 [4-(2-Pyridylmethylthio)-quinazoline]
Suppression rate of indomethacin induced ulcer, 100 mg/kg, p.o. [1]: 94
LD50 [2]: > 1000 mg/kg
reversion test [3]: negative

c1ccc2nc(CSc3ncnc4ccccc34)ccc2c1 [4-(2-Quinolylmethylthio)-quinazoline]
Suppression rate of indomethacin induced ulcer, 100 mg/kg, p.o. [1]: 70

c1ccc2c(SCc3ccncc3)ncnc2c1 [4-(4-Pyridylmethylthio)-quinazoline]
Suppression rate of indomethacin induced ulcer, 100 mg/kg, p.o. [1]: 92

CCN(CC)CCSc1ncnc2ccccc12 [4-[2-(Diethylamino)ethylthio]-quinazoline]
Suppression rate of indomethacin induced ulcer, 100 mg/kg, p.o. [1]: 49

COc1cc(CSc2ncnc3ccccc23)ncc1C [4-[(4-Methoxy-5-methylpyridin-2-yl)methylthio]-quinazoline]
Suppression rate of indomethacin induced ulcer, 100 mg/kg, p.o. [1]: 81

Cc1ccnc(CSc2ncnc3ccccc23)c1 [4-[(4-Methylpyridin-2-yl)methylthio]-quinazoline]
Suppression rate of indomethacin induced ulcer, 100 mg/kg, p.o. [1]: 70

CN/C(=N/CCSCc1nc[nH]c1C)NC#N [Cimetidine, reference compound]
Suppression rate of indomethacin induced ulcer, 100 mg/kg, p.o. [1]: 40
side effects [4]: gynecomatism
